Reference: patent US11840686B2, “Modulation of prekallikrein (PKK) expression” (Ionis Pharmaceuticals, Inc., priority 2013, dated 2023)
Strand notation (5' to 3'): a small letter for the sugar, then the base; units joined by * are phosphorothioate-linked, units joined directly phosphodiester-linked; [ ] holds rarer units or linkages, { } end groups; capitals alone tell only the bases. e = 2'-O-(2-methoxyethyl) (MOE); [5mC] = 5-methylcytosine; d = 2'-deoxy (DNA)

System: human PKK mRNA
Assay: Antisense inhibition of human PKK mRNA in HepaRG cells, 3,000 nM (Example 1)
Format: cell-based
Details: relative to untreated control cells
Summary of the method: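 HepaRG cells, 20,000 per well, were electroporated with 3,000 nM 5-10-5 MOE gapmer (phosphorothioate, 5-methylcytosine). After about 24 h, PKK mRNA was measured by qRT-PCR with primer probe set RTS3454 and normalised to RIBOGREEN total RNA. Values are percent inhibition versus untreated cells.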

[1] = Table 2, PKK mRNA, HepaRG cells, 3,000 nM, electroporation, ~24 h
[2] = Table 3, HepaRG cells, electroporation with 3,000 nM antisense oligonucleotide, approx. 24 hours, PKK mRNA by RT-PCR (RTS3454)

Substance	% inhibition [1] [%]	% inhibition [2] [%]
531068 (e[5mC]*e[5mC]*eA*eT*eG*dT*dA*d[5mC]*dT*d[5mC]*dA*dG*d[5mC]*dG*dA*e[5mC]*eT*eT*eT*eG; antisense) [compound 531068]	59	
531070 (e[5mC]*eT*eG*eT*eG*dT*dT*dT*dT*d[5mC]*dT*d[5mC]*dT*dA*dA*eA*eA*eT*e[5mC]*e[5mC]; antisense) [compound 531070]	68	
531072 (eG*e[5mC]*eT*e[5mC]*eA*dG*dA*dA*dT*dT*dT*dG*dA*d[5mC]*dT*eT*eG*eA*eA*e[5mC]; antisense) [compound 531072]	64	
531073 (e[5mC]*e[5mC]*e[5mC]*eA*eG*dG*d[5mC]*dT*d[5mC]*dA*dG*dA*dA*dT*dT*eT*eG*eA*e[5mC]*eT; antisense) [compound 531073]	51	
531074 (e[5mC]*eT*eT*eT*eG*d[5mC]*dA*dG*dA*dT*dG*dA*dG*dG*dA*e[5mC]*e[5mC]*e[5mC]*e[5mC]*e[5mC]; antisense) [compound 531074]	67	
531075 (e[5mC]*e[5mC]*eA*eT*eG*d[5mC]*dT*dT*dT*dG*d[5mC]*dA*dG*dA*dT*eG*eA*eG*eG*eA; antisense) [compound 531075]	64	
531076 (eA*e[5mC]*eT*e[5mC]*eT*d[5mC]*d[5mC]*dA*dT*dG*d[5mC]*dT*dT*dT*dG*e[5mC]*eA*eG*eA*eT; antisense) [compound 531076]	68	
531077 (eA*eT*eG*e[5mC]*e[5mC]*dA*d[5mC]*dT*d[5mC]*dT*d[5mC]*d[5mC]*dA*dT*dG*e[5mC]*eT*eT*eT*eG; antisense) [compound 531077]	51	
531079 (eT*e[5mC]*e[5mC]*eT*e[5mC]*dA*dG*d[5mC]*dA*dG*d[5mC]*dT*d[5mC]*dT*dG*eA*eG*eT*eG*e[5mC]; antisense) [compound 531079]	58	
531080 (e[5mC]*eA*eT*eT*eG*dT*d[5mC]*d[5mC]*dT*d[5mC]*dA*dG*d[5mC]*dA*dG*e[5mC]*eT*e[5mC]*eT*eG; antisense) [compound 531080]	55	
531081 (eT*eG*eG*eT*eT*dT*dT*dT*dG*dG*dA*dA*dT*dT*d[5mC]*eT*eG*eA*eA*eA; antisense) [compound 531081]	14	
531082 (eA*eT*eA*eT*eT*dG*dG*dT*dT*dT*dT*dT*dG*dG*dA*eA*eT*eT*e[5mC]*eT; antisense) [compound 531082]	31	
531084 (eA*eT*eA*eG*eG*dG*dA*d[5mC]*dA*d[5mC]*dA*dA*d[5mC]*d[5mC]*dA*eA*eG*eG*eA*eA; antisense) [compound 531084]		25
531085 (eA*eG*eG*e[5mC]*eA*d[5mC]*dA*dG*dA*dG*d[5mC]*d[5mC]*dA*dG*d[5mC]*eA*e[5mC]*e[5mC]*e[5mC]*eA; antisense) [compound 531085]		9
531086 (e[5mC]*e[5mC]*eT*eG*e[5mC]*d[5mC]*dT*d[5mC]*d[5mC]*dT*dG*dG*d[5mC]*dA*dG*e[5mC]*e[5mC]*eT*eT*e[5mC]; antisense) [compound 531086]		48
531087 (e[5mC]*e[5mC]*eA*eG*eG*dT*dG*dT*dG*dG*dA*d[5mC]*dA*dG*d[5mC]*eA*eG*e[5mC]*eT*eG; antisense) [compound 531087]		52
531088 (eG*eG*eT*eT*eT*dT*dG*dT*dT*dT*dG*dT*dA*dA*dA*eA*eT*eT*eA*eG; antisense) [compound 531088]		27
531089 (eA*eA*eA*eA*e[5mC]*dA*d[5mC]*d[5mC]*dA*dT*dT*dA*dA*dA*dT*e[5mC]*e[5mC]*eA*eT*eT; antisense) [compound 531089]		45
531090 (eA*e[5mC]*eA*eG*eA*dA*dA*d[5mC]*d[5mC]*dA*dT*dG*dA*dT*dG*eT*eT*eG*e[5mC]*eT; antisense) [compound 531090]		59
531091 (eT*e[5mC]*eA*eG*e[5mC]*d[5mC]*d[5mC]*dA*dA*dT*dG*dT*d[5mC]*d[5mC]*dT*eA*eA*e[5mC]*e[5mC]*eT; antisense) [compound 531091]		35
531092 (e[5mC]*e[5mC]*eT*eT*e[5mC]*dA*d[5mC]*dT*dG*dA*d[5mC]*dT*d[5mC]*dT*d[5mC]*eT*eT*eT*eT*e[5mC]; antisense) [compound 531092]		24
531093 (eT*eT*e[5mC]*eT*e[5mC]*d[5mC]*dT*dG*dG*d[5mC]*dT*d[5mC]*dA*dG*dA*eA*eG*e[5mC]*eT*e[5mC]; antisense) [compound 531093]		60
531094 (eG*eA*eA*eT*eG*dT*d[5mC]*dA*dG*dG*d[5mC]*d[5mC]*dT*d[5mC]*dT*eG*eG*eG*e[5mC]*e[5mC]; antisense) [compound 531094]		48
531095 (e[5mC]*eT*eA*eA*e[5mC]*dA*dA*d[5mC]*d[5mC]*d[5mC]*d[5mC]*dA*d[5mC]*dA*dA*eT*eA*eT*e[5mC]*eA; antisense) [compound 531095]		20

Substance	% inhibition [1] [%]	% inhibition [2] [%]
531096 (e[5mC]*e[5mC]*e[5mC]*eA*eA*dT*dT*d[5mC]*dT*dT*dA*dG*dT*d[5mC]*d[5mC]*eT*eT*eT*eA*eA; antisense) [compound 531096]		45
531097 (eA*e[5mC]*e[5mC]*eA*eA*dG*d[5mC]*dT*d[5mC]*dA*dG*d[5mC]*d[5mC]*dT*d[5mC]*e[5mC]*eA*eA*e[5mC]*eT; antisense) [compound 531097]		41
531098 (eT*eT*eA*eT*eT*dA*dG*dT*d[5mC]*dA*dA*dA*dT*d[5mC]*dA*e[5mC]*e[5mC]*e[5mC]*eA*eA; antisense) [compound 531098]		19
531099 (eT*eG*eG*eA*eT*dG*dG*dG*dT*dA*dG*dA*dG*dG*d[5mC]*e[5mC]*eT*eT*eT*e[5mC]; antisense) [compound 531099]		64
531100 (e[5mC]*e[5mC]*e[5mC]*e[5mC]*e[5mC]*dT*d[5mC]*d[5mC]*d[5mC]*dT*dT*d[5mC]*d[5mC]*d[5mC]*dT*eA*e[5mC]*eA*e[5mC]*eA; antisense) [compound 531100]		0
531101 (eA*eT*eG*eT*eA*dA*dG*dT*dT*dA*d[5mC]*dA*dA*dG*d[5mC]*e[5mC]*eA*e[5mC]*eT*eA; antisense) [compound 531101]		37
531102 (eT*eG*e[5mC]*e[5mC]*eT*d[5mC]*dT*dT*dT*dA*dA*dT*dA*dA*dA*eA*eA*e[5mC]*eT*e[5mC]; antisense) [compound 531102]		42
531103 (eA*e[5mC]*eT*e[5mC]*eA*dT*dT*dG*d[5mC]*d[5mC]*dT*dT*dA*dA*d[5mC]*eT*e[5mC]*eA*eG*eG; antisense) [compound 531103]		40
531104 (eA*e[5mC]*eT*eT*eG*dA*d[5mC]*d[5mC]*dT*dT*dA*d[5mC]*dT*dG*dT*eT*eT*eT*eA*eG; antisense) [compound 531104]		20
531105 (e[5mC]*eT*e[5mC]*e[5mC]*eT*d[5mC]*d[5mC]*d[5mC]*d[5mC]*dA*dG*dG*d[5mC]*dT*dG*e[5mC]*eT*e[5mC]*e[5mC]*eT; antisense) [compound 531105]		16
531106 (antisense eA*eA*eG*eA*eT*d[5mC]*dT*dA*dG*dA*dT*dA*dA*dT*dT*e[5mC]*eT*eT*eG*eT) [compound 531106]		31
531107 (antisense eT*e[5mC]*eA*eA*e[5mC]*dT*d[5mC]*dA*d[5mC]*dA*d[5mC]*d[5mC]*dT*dG*dA*e[5mC]*e[5mC]*eT*eA*eA) [compound 531107]		30
531108 (antisense eT*eG*eA*eA*e[5mC]*d[5mC]*d[5mC]*dA*dA*dA*dA*d[5mC]*dT*d[5mC]*dT*eG*eG*e[5mC]*eA*e[5mC]) [compound 531108]		50
531109 (antisense eA*eG*e[5mC]*e[5mC]*e[5mC]*dA*dA*dG*dG*dA*dA*d[5mC]*dA*dT*d[5mC]*eT*e[5mC]*eA*e[5mC]*e[5mC]) [compound 531109]		52
531111 (antisense e[5mC]*eT*eT*e[5mC]*eT*d[5mC]*d[5mC]*dT*dG*dG*d[5mC]*dT*d[5mC]*dA*dG*eA*eA*eG*e[5mC]*eT) [compound 531111]		68
531112 (antisense eA*eT*eG*eT*eA*dT*dG*dA*dT*dT*d[5mC]*dT*dA*dA*dG*eA*eA*e[5mC]*eT*eT) [compound 531112]		14
531113 (antisense eA*eA*e[5mC]*eA*eG*dA*d[5mC]*dA*d[5mC]*dA*dT*dT*dA*dT*dT*eT*eA*eT*eA*eT) [compound 531113]		0
531114 (antisense eA*eG*eA*eG*eT*d[5mC]*dA*dA*dG*dT*d[5mC]*d[5mC]*dA*d[5mC]*dA*eG*eA*e[5mC]*eA*eT) [compound 531114]		40
531115 (antisense eT*e[5mC]*e[5mC]*eT*eA*dA*dA*dT*dA*dG*dG*dA*dA*d[5mC]*dA*eA*eA*eG*eT*eA) [compound 531115]		0
531116 (antisense eT*eT*eG*eT*eT*dA*dA*dG*dG*dT*dT*dG*dT*dA*dG*eA*eG*eA*eG*eA) [compound 531116]		23
531117 (antisense eA*e[5mC]*e[5mC]*e[5mC]*eA*dA*dT*dT*dA*dT*dT*dT*dT*dT*dA*eA*eT*eG*eG*e[5mC]) [compound 531117]		62
531118 (antisense eG*e[5mC]*e[5mC]*eT*eA*dA*dA*dT*dG*dT*dA*dA*dG*dA*dG*e[5mC]*eT*eA*eA*eA) [compound 531118]		26
531119 (antisense eT*eA*eA*eA*e[5mC]*dT*d[5mC]*dT*dT*dA*d[5mC]*dA*dT*dT*dT*eA*eT*eA*eG*eA) [compound 531119]		0
